From paper PMC4046051, “Two M-T hook residues greatly improve the antiviral activity and resistance profile of the HIV-1 fusion inhibitor SC29EK” (Retrovirology, 2014)
Peptide text beside a SMILES is read from it.

Assays:
Format in all cases: cell-based
[1] = tested on: wild-type HIV-1NL4-3; settings: wild-type HIV-1NL4-3, 100 TCID50, TZM-bl cells, two days, luciferase; mean ± SD of three independent experiments; SD; read-out: IC50 Replication
Procedure: The inhibition of peptides on HIV-1 replication was determined by a molecular cloned wild-type HIV-1NL4–3. In brief, the virus stock was harvested and quantified 48 h post-transfection. 100 TCID50 viruses were used to infect TZM-bl cells in the presence or absence of serially diluted peptides. Two days post-infection, the cells were harvested and lysed in reporter lysis buffer and the luciferase activity was measured as described above.

[2] = tested on: HIV-1NL4-3 pseudovirus; settings: 100 TCID50, TZM-bl cells, 48 h, luciferase, mean ± SD of three independent experiments, SD, read-out: IC50 Entry
Procedure: (§1) The inhibition of peptides on the HIV-1 entry was determined by single-cycle infection assay as described previously. Briefly, HIV-1 pseudovirus was generated by cotransfecting 293 T cells with an Env-expressing plasmid and a backbone plasmid pSG3^Δenv that encodes Env-defective, luciferase-expressing HIV-1 genome. The supernatants were harvested and filtered 48 h after transfection and 50% tissue culture infectious dose (TCID50) was determined in TZM-bl cells. The peptides were prepared with 3-fold dilutions and mixed with 100 TCID50 viruses and then incubated 1 h at room temperature. The mixture was added to TZM-bl cells (10^4/well) and incubated 48 h at 37°C. The luciferase activity was measured using luciferase assay reagents and a Luminescence Counter (Promega).

[3] = tested on: molecular clone of HIV-1NL4-3; test: In vitro selection of HIV-1 resistance in MT-4 cells; settings: 1.5-2 fold escalating concentrations, 22 passages in 4 months
Procedure: The in vitro selection of HIV-1 resistance to peptide inhibitors was performed as described previously. Briefly, MT-4 cells were seeded at 1 × 10^4 in RPMI 1640 medium containing 10% fetal bovine serum on 12-well plates. The molecular clone of HIV-1NL4–3 was used to infect the cells in the presence or absence of diluted peptide inhibitors (SC29EK, MT-SC29EK, SC22EK and MT-SC22EK). The cells were incubated at 37°C with 5% CO2 until an extensive cytopathic effect was observed. The culture supernatants were harvested and used for next passage on fresh MT-4 cells with 1.5-2 fold increasing concentrations of peptide. Cells and supernatant were harvested at regular time points and stored at -80°C.

[4] = tested on: HIV-1 NL4-3 WT; test: Inhibition of T20-resistant HIV-1 variants panel: WT; settings: mean ± SD of three independent experiments, SD
Procedure: as §1

[5] = tested on: HIV-1 NL4-3 Q40H; test: Inhibition of T20-resistant HIV-1 variants: Q40H; settings: mean ± SD of three independent experiments, SD
Procedure: as §1

[6] = tested on: HIV-1 NL4-3 I37T; test: Inhibition of T20-resistant HIV-1 variants: I37T; settings: mean ± SD of three independent experiments, SD
Procedure: as §1

[7] = tested on: HIV-1 NL4-3 V38A; test: Inhibition of T20-resistant HIV-1 variants: V38A; settings: mean ± SD of three independent experiments, SD
Procedure: as §1

[8] = tested on: HIV-1 NL4-3 I37T/N43K; test: Inhibition of T20-resistant HIV-1 variants: I37T/N43K; settings: mean ± SD of three independent experiments
Procedure: as §1

[9] = tested on: HIV-1 NL4-3 V38M; test: Inhibition of T20-resistant HIV-1 variants: V38M; settings: mean ± SD of three independent experiments, SD
Procedure: as §1

[10] = tested on: HIV-1 NL4-3 D36S/V38M; test: Inhibition of T20-resistant HIV-1 variants: D36S/V38M; settings: mean ± SD of three independent experiments, SD
Procedure: as §1

[11] = tested on: HIV-1 NL4-3 N43K; test: Inhibition of T20-resistant HIV-1 variants: N43K; settings: mean ± SD of three independent experiments, SD
Procedure: as §1

## CC[C@H](C)[C@H](NC(=O)[C@H](CCC(=O)O)NC(=O)[C@H](CCCNC(=N)N)NC(=O)[C@H](CCC(=O)O)NC(=O)[C@H](Cc1c[nH]c2ccccc12)NC(=O)[C@H](CCC(=O)O)NC(=O)[C@H](CCSC)NC(=O)[C@H](Cc1c[nH]c2ccccc12)NC(=O)[C@@H](NC(=O)[C@H](CCSC)NC(=O)[C@H](CCC(=O)O)NC(=O)[C@H](CC(N)=O)NC(=O)[C@H](Cc1c[nH]c2ccccc12)NC(=O)[C@H](CCC(=O)O)NC(=O)[C@@H](NC(C)=O)C(C)C)[C@@H](C)O)C(=O)N[C@@H](CCC(=O)O)C(=O)N[C@@H](CC(N)=O)C(=O)N[C@@H](Cc1ccc(O)cc1)C(=O)N[C@H](C(=O)N[C@@H](CCCCN)C(=O)N[C@@H](CC(C)C)C(=O)N[C@H](C(=O)N[C@@H](Cc1ccc(O)cc1)C(=O)N[C@@H](CCCCN)C(=O)N[C@H](C(=O)N[C@@H](CC(C)C)C(=O)N[C@@H](CCC(=O)O)C(=O)N[C@@H](CCC(=O)O)C(=O)N[C@@H](CO)C(=O)N[C@@H](CCC(N)=O)C(=O)N[C@@H](CCC(=O)O)C(=O)N[C@@H](CCC(N)=O)C(N)=O)[C@@H](C)CC)[C@@H](C)CC)[C@@H](C)O [CP32M] (Ac-VEWNEMTWMEWEREIENYTKLIYKILEESQEQ-NH2)
[1]
  IC50: 0.001 ± 0.0002 µM
[2]
  IC50: 0.0018 ± 0.0002 µM

## CC[C@H](C)[C@H](NC(=O)[C@H](CC(C)C)NC(=O)[C@H](CCC(=O)O)NC(=O)[C@H](CCC(=O)O)NC(=O)[C@@H](NC(=O)[C@H](CCCCN)NC(=O)[C@H](CCCCN)NC(=O)[C@@H](NC(=O)[C@H](Cc1ccc(O)cc1)NC(=O)[C@H](CCC(=O)O)NC(=O)[C@H](CCC(=O)O)NC(=O)[C@@H](NC(=O)[C@H](CCCCN)NC(=O)[C@H](CCCCN)NC(=O)[C@H](CC(=O)O)NC(=O)[C@H](Cc1c[nH]c2ccccc12)NC(=O)[C@H](CCC(=O)O)NC(=O)[C@H](CCC(=O)O)NC(=O)[C@H](Cc1c[nH]c2ccccc12)NC(=O)[C@@H](NC(=O)[C@H](CCSC)NC(C)=O)[C@@H](C)O)[C@@H](C)CC)[C@@H](C)O)[C@@H](C)CC)C(=O)N[C@@H](CCCCN)C(=O)N[C@@H](CCCCN)C(=O)N[C@@H](CO)C(N)=O [MT-SC22EK] (Ac-MTWEEWDKKIEEYTKKIEELIKKS-NH2)
[3]
  peptide concentration reached during in vitro selection of resistant virus: ~100 nM
[1]
  IC50: 0.0011 ± 0.0001 µM
[2]
  IC50: 0.0021 ± 0.0002 µM

## CC[C@H](C)[C@H](NC(=O)[C@H](CCC(=O)O)NC(=O)[C@H](CCCNC(=N)N)NC(=O)[C@H](CCC(=O)O)NC(=O)[C@H](Cc1c[nH]c2ccccc12)NC(=O)[C@@H](NC(=O)[C@H](CCC(=O)O)NC(=O)[C@H](Cc1c[nH]c2ccccc12)NC(=O)[C@H](CO)NC(C)=O)[C@@H](C)O)C(=O)N[C@@H](CCC(=O)O)C(=O)N[C@@H](CC(N)=O)C(=O)N[C@@H](Cc1ccc(O)cc1)C(=O)N[C@H](C(=O)N[C@@H](CCCNC(=N)N)C(=O)N[C@@H](CCC(N)=O)C(=O)N[C@H](C(=O)N[C@@H](Cc1ccc(O)cc1)C(=O)N[C@@H](CCCNC(=N)N)C(=O)N[C@H](C(=O)N[C@@H](CC(C)C)C(=O)N[C@@H](CCC(=O)O)C(=O)N[C@@H](CCC(=O)O)C(=O)N[C@@H](CO)C(=O)N[C@@H](CCC(N)=O)C(=O)N[C@@H](CCC(=O)O)C(=O)N[C@@H](CCC(N)=O)C(=O)N[C@@H](CCC(N)=O)C(=O)N[C@@H](CC(=O)O)C(=O)N[C@@H](CCCNC(=N)N)C(=O)N[C@@H](CC(N)=O)C(=O)N[C@@H](CCC(=O)O)C(=O)N[C@@H](CCCNC(=N)N)C(=O)N[C@@H](CC(=O)O)C(=O)N[C@@H](CC(C)C)C(=O)N[C@@H](CC(C)C)C(=O)N[C@@H](CCC(=O)O)C(N)=O)[C@@H](C)CC)[C@@H](C)CC)[C@@H](C)O [SFT, Sifuvirtide] (Ac-SWETWEREIENYTRQIYRILEESQEQQDRNERDLLE-NH2)
[1]
  IC50: 0.0015 ± 0.0001 µM
[2]
  IC50: 0.0026 ± 0.0001 µM

## CC[C@H](C)[C@H](NC(=O)[C@H](C)NC(=O)[C@H](CCCNC(=N)N)NC(=O)[C@H](CC(=O)O)NC(=O)[C@H](Cc1c[nH]c2ccccc12)NC(=O)[C@H](C)NC(=O)[C@H](CCC(=O)O)NC(=O)[C@H](Cc1c[nH]c2ccccc12)NC(=O)[C@@H](NC(=O)[C@@H](NC(C)=O)[C@@H](C)O)[C@@H](C)O)C(=O)N[C@@H](C)C(=O)N[C@@H](CCC(=O)O)C(=O)N[C@@H](Cc1ccc(O)cc1)C(=O)N[C@@H](C)C(=O)N[C@@H](C)C(=O)N[C@@H](CCCNC(=N)N)C(=O)N[C@H](C(=O)N[C@@H](CCC(=O)O)C(=O)N[C@@H](C)C(=O)N[C@@H](CC(C)C)C(=O)N[C@H](C(=O)N[C@@H](CCCNC(=N)N)C(=O)N[C@@H](C)C(=O)N[C@@H](C)C(=O)N[C@@H](CCC(N)=O)C(=O)N[C@@H](CCC(=O)O)C(=O)N[C@@H](CCC(N)=O)C(=O)N[C@@H](CCC(N)=O)C(=O)N[C@@H](CCC(=O)O)C(=O)N[C@@H](CCCCN)C(=O)N[C@@H](CC(N)=O)C(=O)N[C@@H](CCC(=O)O)C(=O)N[C@@H](C)C(=O)N[C@@H](C)C(=O)N[C@@H](CC(C)C)C(=O)N[C@@H](CCCNC(=N)N)C(=O)N[C@@H](CCC(=O)O)C(=O)N[C@@H](CC(C)C)C(N)=O)[C@@H](C)CC)[C@@H](C)CC [T2635]
[2]
  IC50: 0.0011 ± 0.0001 µM

## enfuvirtide
[4]
  IC50: 0.0521 ± 0.0085 µM
[5]
  IC50: 1.32 ± 0.0923 µM
[6]
  IC50: 0.552 ± 0.123 µM
[7]
  IC50: 1.84 ± 0.0561 µM
[8]
  IC50: > 2.25 µM
[1]
  IC50: 0.0486 ± 0.0012 µM
[9]
  IC50: 0.378 ± 0.0417 µM
[10]
  IC50: 0.203 ± 0.0126 µM
[11]
  IC50: 0.367 ± 0.0474 µM
